Results taken from patent publication US12122776B2, “Tetracyclic compounds and uses thereof” (Gilead Sciences, Inc., priority 2020, dated 2024).
Like-named read-outs stand apart in the source and are kept apart here.

Assays:
Type in all cases: cell-based
[1] = Cytotoxicity assay in MT-4 cells; details: human; uninfected MT-4 cells, 5 days incubation, Cell Titer Glo
Protocol: Cytotoxicity Assay in MT-4 Cells Assays were performed as above except uninfected MT-4 cells were added to each well containing test compound. In addition, 10 μM puromycin was added to the last column of each assay plate to assess a base level of cytotoxicity.

pLai RLuc reporter virus = test: HIV MT-4 serum shift antiviral reporter assay; details: Human immunodeficiency virus 1, MT4, 72 h
Protocol: Example 25: HIV MT-4 Serum Shift Antiviral Reporter Assay
To quantify the amount of protein binding to human serum, compounds were serially diluted (1:3) in DMSO and acoustically transferred onto 384-well assay plates via a Labcyte ECHO robot. Each plate contained up to 8 test compounds, including negative and positive controls, (DMSO, 5 μM AZT respectively). Assay plates were prepared in duplicate, and tested in either CCM (cell culture media) or HS/CCM (human serum/cell culture media). MT-4 cells were first pre-infected with pLai RLuc reporter virus for 2 h at 37° C., then further diluted in either CCM (RPMI media, 10% FBS, 1% P/S) or HS/CCM (RPMI media, 10% FBS, 50% HS, 1% P/S), and subsequently added to each plate using a Biotek Micro Flow dispenser. After a 72-h incubation in a humidified and temperature controlled incubator (37° C.), Renilla Glo (Promega) was added to all assay plates and chemiluminescence read using an Envision plate-reader. EC50 values were defined as the compound concentration that causes a 50% decrease in luminescence signal, and were calculated using a sigmoidal dose-response model to generate curve fits. To determine the amount of protein binding, EC50 fold shifts (or EC50 shifts) were calculated by dividing EC50 (HS/CCM)/EC50 (CCM).

HIV-1 (IIIB) = test: Antiviral assay in MT-4 cells; details: Human immunodeficiency virus 1, MT4, 120 h; replication of HIV-1 (IIIB) in MT-4 cells, 5 days incubation, Cell Titer Glo
Protocol: Example 24: HIV MT-4 Antiviral and Cytotoxicity Assay
Antiviral Assay in MT-4 Cells
Compounds were tested in a high-throughput 384-well assay format for their ability to inhibit the replication of HIV-1 (IIIB) in MT-4 cells. Compounds were serially diluted (1:3) in DMSO on 384-well polypropylene plates and further diluted 200-fold into complete RPMI media (10% FBS, 1% P/S) using the Biotek Micro Flow and Labcyte ECHO acoustic dispenser. Each plate contained up to 8 test compounds, with negative (No Drug Control) and 5 μM AZT positive controls. MT-4 cells were pre-infected with 10 μL of either RPMI (mock-infected) or a fresh 1:250 dilution of HIV-1 IIIB concentrated virus stock. Infected and uninfected MT-4 cells were further diluted in complete RPMI media and added to each plate using a Micro Flow dispenser. After 5 days incubation in a humidified and temperature controlled incubator (37° C.), Cell Titer Glo (Promega) was added to the assay plates and chemiluminescence read using an Envision plate-reader. EC50 values were defined as the compound concentration that causes a 50% decrease in luminescence signal, and were calculated using a sigmoidal dose-response model to generate curve fits.

[2] = read-out: Antiviral Serum Shift RLuc 50% HS
[3] = read-out: Antiviral Serum Shift RLuc CCM

EC50 (HIV-1 (IIIB)) [nM]	Structure (SMILES)	CC50 at 5 days [1] [nM]	EC50 (pLai RLuc reporter virus; [2]) [nM]	EC50 (pLai RLuc reporter virus; [3]) [nM]
4.47	CO[C@H]1C[C@@]23CCCCN(C2)C(=O)c2c(O)c(=O)c(C(=O)NCc4c(F)cc(F)cc4F)c1n23 (single isomer, unassigned) [Compound 12-3]	14800		
7.33	CO[C@@H]1C[C@]23CCCCN(C2)C(=O)c2c(O)c(=O)c(C(=O)NCc4c(F)cc(F)cc4F)c1n23 (single isomer, unassigned) [Compound 12-4]			
1.7	CO[C@@H]1[C@@H](OC)c2c(C(=O)NCc3c(F)cc(F)cc3F)c(=O)c(O)c3n2[C@@]12CCCCN(C2)C3=O (single isomer, unassigned) [Compound 13-1]	27800		
1.1	CO[C@@H]1c2c(C(=O)NCc3c(F)cc(F)cc3F)c(=O)c(O)c3n2[C@]2(CCCCN(C2)C3=O)[C@H]1OC (single isomer, unassigned) [Compound 13-2]	24700		
9.5	CO[C@@H]1c2c(C(=O)NCc3c(F)cc(F)cc3F)c(=O)c(O)c3n2[C@@]2(CCCCN(C2)C3=O)[C@H]1OC (single isomer, unassigned) [Compound 13-3]	10100		
10.7	CO[C@@H]1[C@@H](OC)c2c(C(=O)NCc3c(F)cc(F)cc3F)c(=O)c(O)c3n2[C@]12CCCCN(C2)C3=O (single isomer, unassigned) [Compound 13-4]	30700		
2.1	CO[C@H]1CC[C@H](C)N2C[C@]13CCc1c(C(=O)NCc4ccc(F)cc4F)c(=O)c(O)c(n13)C2=O [Compound 19-1, (1R,11S,14S)—N-[(2.4 difluorophenyl)methyl]-7-hydroxy-14-methoxy-11-methyl-6,9-dioxo-10,15-diazatetracyclo[6.6.1.11,10.04,15]hexadeca-4.7 diene-5-carboxamide]	4600		
0.86	CO[C@H]1C=C[C@H](C)N2C[C@]13CCc1c(C(=O)NCc4ccc(F)cc4F)c(=O)c(O)c(n13)C2=O [Compound 19-2, (1R,11S,14S)—N-[(2.4 difluorophenyl)methyl]-7-hydroxy-14-methoxy-11-methyl-6,9-dioxo-10,15-diazatetracyclo[6.6.1.11,10.04,15]hexadeca-4,7,12-triene-5-carboxamide]	1870		
1.2	CO[C@H]1C=C[C@H](C)N2C[C@]13CC(O)c1c(C(=O)NCc4ccc(F)cc4F)c(=O)c(O)c(n13)C2=O (stereo partly drawn) [Compound 19-3, (1R,11S,14S)—N-[(2.4 difluorophenyl)methyl]-3.7 dihydroxy-14-methoxy-11-methyl-6,9-dioxo-10,15-diazatetracyclo[6.6.1.11,10.04,15]hexadeca-4,7,12-triene-5-carboxamide]	6950		
5.7	C[C@H]1CC[C@H](O)[C@]23CCc4c(C(=O)NCc5c(F)cc(F)cc5F)c(=O)c(O)c(n42)C(=O)N1C3 [Compound 23-1, (3S,6S,6aR)-6,11-dihydroxy-3-methyl-1,10-dioxo-N-(2,4,6-trifluorobenzyl)-1,3,4,5,6,7,8,10-octahydro-2,6a-methano[1,4]diazonino[9,1,2-cd]indolizine-9-carboxamide]	26600		

More lines, now with the values behind:

Structure (SMILES)	EC50 (HIV-1 (IIIB)) [nM]	CC50 at 5 days [1] [nM]	EC50 (pLai RLuc reporter virus; [2]) [nM]	EC50 (pLai RLuc reporter virus; [3]) [nM]
O=C(NCc1c(F)cc(F)cc1F)c1c2n3c(c(O)c1=O)C(=O)N1CCCC[C@]3(C[C@@H]2F)C1 (single isomer, unassigned) [Compound 8-1]	0.86	7380	25.4	0.429
O=C(NCc1c(F)cc(F)cc1F)c1c2n3c(c(O)c1=O)C(=O)N1CCCC[C@@]3(C[C@H]2F)C1 (single isomer, unassigned) [Compound 8-2]	2.29			
O=C(NCc1c(F)cc(F)cc1F)c1c2n3c(c(O)c1=O)C(=O)N1CCCC[C@]3(C[C@H]2O)C1 (single isomer, unassigned) [Compound 9-1]	3.06	8080	200	0.685
O=C(NCc1c(F)cc(F)cc1F)c1c2n3c(c(O)c1=O)C(=O)N1CCCC[C@@]3(C[C@H]2O)C1 (single isomer, unassigned) [Compound 9-2]	1.23	5170	34.1	0.347
O=C(NCc1c(F)cc(F)cc1F)c1c2n3c(c(O)c1=O)C(=O)N1CCCC[C@]3(C[C@@H]2O)C1 (single isomer, unassigned) [Compound 9-3]	1.06	6310	28.5	0.384
O=C(NCc1c(F)cc(F)cc1F)c1c2n3c(c(O)c1=O)C(=O)N1CCCC[C@@]3(C[C@@H]2O)C1 (single isomer, unassigned) [Compound 9-4]	0.703	6400	5.19	0.388
O=C(NCc1ccc(F)cc1F)c1c2n3c(c(O)c1=O)C(=O)N1CCCC[C@]3(C[C@H]2O)C1 (single isomer, unassigned) [Compound 10-1]	4.98	9560	121	0.715
O=C(NCc1ccc(F)cc1F)c1c2n3c(c(O)c1=O)C(=O)N1CCCC[C@@]3(C[C@H]2O)C1 (single isomer, unassigned) [Compound 10-2]	1.05	4120	21.1	0.417
O=C(NCc1ccc(F)cc1F)c1c2n3c(c(O)c1=O)C(=O)N1CCCC[C@]3(C[C@@H]2O)C1 (single isomer, unassigned) [Compound 10-3]	3.31	9470	25.6	0.632
O=C(NCc1ccc(F)cc1F)c1c2n3c(c(O)c1=O)C(=O)N1CCCC[C@@]3(C[C@@H]2O)C1 (single isomer, unassigned) [Compound 10-4]	2.47	4610	3.3	0.405
O=C(NCc1c(F)cc(F)cc1F)c1c2n3c(c(O)c1=O)C(=O)N1CCCC[C@@]3(C1)[C@H](O)[C@H]2O (single isomer, unassigned) [Compound 11-1]	4	50000	3.91	1.16
O=C(NCc1c(F)cc(F)cc1F)c1c2n3c(c(O)c1=O)C(=O)N1CCCC[C@]3(C1)[C@H](O)[C@H]2O (single isomer, unassigned) [Compound 11-2]			48.4	1.52
O=C(NCc1c(F)cc(F)cc1F)c1c2n3c(c(O)c1=O)C(=O)N1CCCC[C@@]3(C1)[C@@H](O)[C@@H]2O (single isomer, unassigned) [Compound 11-3]	5.28	50000	7.57	4.08
O=C(NCc1c(F)cc(F)cc1F)c1c2n3c(c(O)c1=O)C(=O)N1CCCC[C@]3(C1)[C@@H](O)[C@@H]2O (single isomer, unassigned) [Compound 11-4]	4.02	50000	20.5	1.02
CO[C@@H]1C[C@@]23CCCCN(C2)C(=O)c2c(O)c(=O)c(C(=O)NCc4c(F)cc(F)cc4F)c1n23 (single isomer, unassigned) [Compound 12-1]	1.54	9690	16.9	0.77
O=C(NCc1c(F)cc(F)cc1F)c1c2n3c(c(O)c1=O)C(=O)N1CCCC[C@]3(CC2CO)C1 (single isomer, unassigned) [Compound 16]	2.8	7450		
O=C(NCc1cccc(Cl)c1F)c1c2n3c(c(O)c1=O)C(=O)N1CCCC[C@]3(CC2)C1 [Compound 6, (6aS)—N-(3-chloro-2-fluorobenzyl)-11-hydroxy-1,10-dioxo-1,3,4,5,6,7,8,10-octahydro-2,6a-methano[1,4]diazonino[9,1,2-cd]indolizine-9-carboxamide]	2.6	3680		
CO[C@H]1C=C[C@H](C)N2C[C@]13CCc1c(C(=O)NCc4c(F)cc(F)cc4F)c(=O)c(O)c(n13)C2=O [Compound 22, (3S,6S,6aR)-11-hydroxy-6-methoxy-3-methyl-1,10-dioxo-N-(2,4,6-trifluorobenzyl)-1,3,6,7,8,10-hexahydro-2,6a-methano[1,4]diazonino[9,1,2-cd]indolizine-9-carboxamide]	1.8	1940		
